What follows are compounds tested on SARS-CoV-2 (assay: microbe, parasite or virus in culture). Settings: Severe acute respiratory syndrome coronavirus 2, HeLa-ACE2, 24 h, read-out: EC50, μM (Hela).
Format: cell-based
In the case of `CC(C)C[C@H](NC(=O)C(=O)NC1CCCCC1)C(=O)N[C@@H](C[C@@H]1CCNC1=O)C(=O)CO` [Compound 14, N^1-cyclohexyl-N^2-((S)-1-(((S)-4-hydroxy-3-oxo-1-((S)-2-oxopyrrolidin-3-yl)butan-2-yl)amino)-4-methyl-1-oxopentan-2-yl)oxalamide], the EC50 is reported as > 1 µM.

Same assay, conditions: Severe acute respiratory syndrome coronavirus 2; HeLa-ACE2 cells infected with SARS-CoV-2, 24 h, immunofluorescence of infected cells; read-out: EC50, μM (Hela)
Work on `N#C[C@H](C[C@@H]1CCCNC1=O)NC(=O)[C@@H]1[C@H]2CCC[C@H]2CN1C(=O)C(=O)Nc1ccccc1F` [Compound 60, (1S,3aR,6aS)-N-((S)-1-cyano-2-((S)-2-oxopiperidin-3-yl)ethyl)-2-(2-((2-fluorophenyl)amino)-2-oxoacetyl)octahydrocyclopenta[c] pyrrole-1-carboxamide] yielded an EC50 of 0.5 to 1 µM.
`CC(=O)OCC(=O)[C@H](C[C@@H]1CCNC1=O)NC(=O)[C@H](CC(C)C)NC(=O)C(=O)Nc1ccccc1F` [Compound 106, (S)-3-((S)-2-(2-((2-fluorophenyl)amino)-2-oxoacetamido)-4-methylpentanamido)-2-oxo-4-((S)-2-oxopyrrolidin-3-yl)butyl acetate] gave an EC50 of 0.05 to 0.2 µM.
In the case of `COc1cccc2[nH]c(C(=O)N[C@@H](CC(C)C)C(=O)N[C@@H](C[C@@H]3CCNC3=O)C(=O)COC(=O)C3CCC(N4CCCCC4)CC3)cc12` (stereo partly drawn) [Compound 124, (S)-3-((S)-2-(4-methoxy-1H-indole-2-carboxamido)-4-methylpentanamido)-2-oxo-4-((S)-2-oxopyrrolidin-3-yl)butyl 4-(piperidin-1-yl)cyclohexane-1-carboxylate], the EC50 is reported as > 1 µM.
With `CC(=O)OCC(=O)[C@H](C[C@@H]1CCCNC1=O)NC(=O)[C@H](CC(C)C)NC(=O)C(=O)Nc1ccccc1F` [Compound 105, (S)-3-((S)-2-(2-((2-fluorophenyl)amino)-2-oxoacetamido)-4-methylpentanamido)-2-oxo-4-((S)-2-oxopiperidin-3-yl)butyl acetate] the EC50 was 0.05 to 0.2 µM.
`O=C(Nc1ccccc1F)C(=O)N[C@@H](CC1CCCCC1)C(=O)N[C@@H](C[C@@H]1CCCNC1=O)C(=O)CO` [Compound 24, N^1-((S)-3-cyclohexyl-1-(((S)-4-hydroxy-3-oxo-1-((S)-2-oxopiperidin-3-yl)butan-2-yl)amino)-1-oxopropan-2-yl)-N^2-(2-fluorophenyl)oxalamide] showed an EC50 of 0.05 to 0.2 µM.
With `CC(C)C[C@H](NC(=O)C(=O)Nc1ccccc1)C(=O)N[C@H](C=O)C[C@@H]1CCNC1=O` [Compound 37, N^1-((S)-4-methyl-1-oxo-1-(((S)-1-oxo-3-((S)-2-oxopyrrolidin-3-yl)propan-2-yl)amino)pentan-2-yl)-N^2-phenyloxalamide] the EC50 was > 1 µM.
With `CC(C)(C)C[C@H](NC(=O)C(=O)Nc1cccc(C(F)(F)F)c1)C(=O)N[C@@H](CC1CCCNC1=O)C(=O)CO` (stereo partly drawn) [Compound 99] the EC50 was < 0.05 µM.
For `CC(C)CC(=O)OCC(=O)[C@H](C[C@@H]1CCNC1=O)NC(=O)[C@H](CC(C)C)NC(=O)C(=O)Nc1ccccc1F` [Compound 103, (S)-3-((S)-2-(2-((2-fluorophenyl)amino)-2-oxoacetamido)-4-methylpentanamido)-2-oxo-4-((S)-2-oxopyrrolidin-3-yl)butyl 3-methylbutanoate], the EC50 was 0.05 to 0.2 µM.
Work on `Cc1ccccc1NC(=O)C(=O)N[C@@H](CC(C)C)C(=O)N[C@H](C=O)C[C@@H]1CCNC1=O` [Compound 38, N^1-((S)-4-methyl-1-oxo-1-(((S)-1-oxo-3-((S)-2-oxopyrrolidin-3-yl)propan-2-yl)amino)pentan-2-yl)-N^2-(o-tolyl)oxalamide] yielded an EC50 of 0.05 to 0.2 µM.
`CC(C)C[C@H](NC(=O)c1cc(-c2ccccc2F)on1)C(=O)N[C@H](C=O)C[C@@H]1CCCNC1=O` [Compound 126, 5-(2-fluorophenyl)-N-((S)-4-methyl-1-oxo-1-(((S)-1-oxo-3-((S)-2-oxopiperidin-3-yl)propan-2-yl)amino)pentan-2-yl)isoxazole-3-carboxamide] showed an EC50 of 0.05 to 0.2 µM.
Work on `COc1cccc2[nH]c(C(=O)N[C@@H](CC(C)C)C(=O)N[C@@H](C[C@@H]3CCCNC3=O)C(=O)CO)cc12` [Compound 129, N-((S)-1-(((S)-4-hydroxy-3-oxo-1-((S)-2-oxopiperidin-3-yl)butan-2-yl)amino)-4-methyl-1-oxopentan-2-yl)-4-methoxy-1H-indole-2-carboxamide] yielded an EC50 of 0.5 to 1 µM.
With `N#C[C@H](C[C@@H]1CCNC1=O)NC(=O)[C@@H]1CC2(CC2)CN1C(=O)C(=O)Nc1ccccc1F` [Compound 64, (S)-N-((S)-1-cyano-2-((S)-2-oxopyrrolidin-3-yl)ethyl)-5-(2-((2-fluorophenyl)amino)-2-oxoacetyl)-5-azaspiro[2.4]heptane-6-carboxamide] the EC50 was > 1 µM.
Work on `Cc1ccccc1NC(=O)C(=O)N[C@@H](CC1CCCCC1)C(=O)N[C@@H](C[C@@H]1CCNC1=O)C(=O)CO` [Compound 8, N^1-((S)-3-cyclohexyl-1-(((S)-4-hydroxy-3-oxo-1-((S)-2-oxopyrrolidin-3-yl)butan-2-yl)amino)-1-oxopropan-2-yl)-N^2-(o-tolyl)oxalamide] yielded an EC50 of 0.2 to 0.5 µM.
With `CC(C)C[C@H](NC(=O)C(=O)NC1(C)CC1)C(=O)N[C@H](C=O)C[C@@H]1CCNC1=O` [Compound 43, N^1-((S)-4-methyl-1-oxo-1-(((S)-1-oxo-3-((S)-2-oxopyrrolidin-3-yl)propan-2-yl)amino)pentan-2-yl)-N^2-(1-methylcyclopropyl)oxalamide] the EC50 was > 1 µM.
Work on `O=C[C@H](C[C@@H]1CCNC1=O)NC(=O)[C@H](CC1CCCCC1)NC(=O)C(=O)Nc1ccccc1F` [Compound 40, N^1-((S)-3-cyclohexyl-1-oxo-1-(((S)-1-oxo-3-((S)-2-oxopyrrolidin-3-yl)propan-2-yl)amino)propan-2-yl)-N^2-(2-fluorophenyl)oxalamide] yielded an EC50 of 0.05 to 0.2 µM.
For `CC(C)(C)C[C@H](NC(=O)C(=O)Nc1cccc(Cl)c1)C(=O)N[C@@H](CC1CCCNC1=O)C(=O)CO` (stereo partly drawn) [Compound 102, N^1-(3-chlorophenyl)-N^2-((S)-1-(((S)-4-hydroxy-3-oxo-1-((S)-2-oxopiperidin-3-yl)butan-2-yl)amino)-4,4-dimethyl-l-oxopentan-2-yl)oxalamide], the EC50 was < 0.05 µM.
With `CCCCCCC(=O)OCC(=O)[C@H](C[C@@H]1CCNC1=O)NC(=O)[C@H](CC(C)C)NC(=O)C(=O)NC1CCCCC1` [Compound 18, (S)-3-((S)-2-(2-(cyclohexylamino)-2-oxoacetamido)-4-methylpentanamido)-2-oxo-4-((S)-2-oxopyrrolidin-3-yl)butyl heptanoate] the EC50 was 0.05 to 0.2 µM.
